For assay [1], the target named is T1, HDAC1 (Homo sapiens, UniProt Q13547).
T1 construct: purchased BPS Bioscience
Put plainly: In vitro HDAC1 enzymatic activity inhibition (Lys-Ac-AMC substrate). Type of assay: biochemical. As to the method: Determining the inhibition capability to HDAC activity through the substrate method of fluorophore 4-amino-7-coumarin coupled Ac-peptide (Lys-Ac-AMC). HDAC1 protein is purchased from BPS Bioscience Company; the reaction buffer system is a modified tris(hydroxymethyl)aminomethane (TRIS) buffer (pH7.0). All small molecule compounds are prepared and dissolved by 100% DMSO (dimethyl sulfoxide). HDAC is prepared into the buffer as per certain concentration to be served as the enzyme solution; trypsin and the fluorophore 4-amino-7-coumarin coupled Ac-peptide substrate are prepared into the buffer as per certain concentration to be served as the substrate solution. Adding the compound into the reaction wells of the 384 well plate at the designed concentration, then adding 15 μL HDAC solution into the reaction wells (adding 15 μL blank buffer into the control well 0) for incubation under ambient temperature for 15 min; then adding 10 μL substrate solution to start reaction; during the reaction, the final concentration of HDAC1 protein is 6 nM, trypsin 0.05 μM and Ac-peptide 8 μM.
(§1) Calculating the value of IC50 as per the formula: Y=background data+(top data−background data)/(1+10^((Log IC50−X)*rate of curve))
Where, Y refers to the inhibition ratio (%) and X refers to the compound concentration. […]
Analyzing the result data with the software GraphPad Prism and calculating the value of IC50 as per the formula: Y=background data+(top data−background data)/(1+10^((Log IC50−X)*rate of curve)). Where, Y refers to the inhibition ratio (%) and X refers to the compound concentration.

The target in assay [2] is T2, PI3Kα (Homo sapiens, UniProt P42336).
T2 construct: purchased Invitrogen PV4788
T2 sequence (P42336 whole entry, species assumed): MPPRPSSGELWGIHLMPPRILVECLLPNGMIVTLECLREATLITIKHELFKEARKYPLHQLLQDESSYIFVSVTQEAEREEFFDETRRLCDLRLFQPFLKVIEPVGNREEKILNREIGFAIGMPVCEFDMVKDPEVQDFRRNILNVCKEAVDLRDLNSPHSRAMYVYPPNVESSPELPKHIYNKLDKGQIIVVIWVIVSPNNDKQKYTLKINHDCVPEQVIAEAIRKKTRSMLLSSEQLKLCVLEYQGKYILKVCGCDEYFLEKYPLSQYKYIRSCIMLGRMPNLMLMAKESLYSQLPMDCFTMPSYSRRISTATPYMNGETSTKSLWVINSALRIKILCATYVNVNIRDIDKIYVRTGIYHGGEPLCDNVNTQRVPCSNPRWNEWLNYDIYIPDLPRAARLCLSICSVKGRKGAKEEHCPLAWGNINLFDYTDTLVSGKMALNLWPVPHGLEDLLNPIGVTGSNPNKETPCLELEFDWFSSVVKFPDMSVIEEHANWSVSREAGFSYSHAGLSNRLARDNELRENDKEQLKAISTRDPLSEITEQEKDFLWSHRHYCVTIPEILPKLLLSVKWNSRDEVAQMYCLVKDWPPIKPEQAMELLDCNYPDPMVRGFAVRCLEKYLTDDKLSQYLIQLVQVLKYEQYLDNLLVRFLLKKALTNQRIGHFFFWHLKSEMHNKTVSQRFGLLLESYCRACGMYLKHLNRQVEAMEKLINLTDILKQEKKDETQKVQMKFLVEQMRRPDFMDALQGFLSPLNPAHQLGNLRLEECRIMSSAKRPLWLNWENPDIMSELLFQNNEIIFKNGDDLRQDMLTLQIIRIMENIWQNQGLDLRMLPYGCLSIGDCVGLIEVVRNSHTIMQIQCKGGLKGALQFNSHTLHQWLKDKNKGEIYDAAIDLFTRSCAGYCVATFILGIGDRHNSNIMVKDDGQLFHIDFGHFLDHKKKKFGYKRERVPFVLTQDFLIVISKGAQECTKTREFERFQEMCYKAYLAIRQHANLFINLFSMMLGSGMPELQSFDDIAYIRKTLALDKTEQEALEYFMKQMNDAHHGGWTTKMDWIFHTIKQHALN
T2 sequence (P27986 whole entry partner, species assumed): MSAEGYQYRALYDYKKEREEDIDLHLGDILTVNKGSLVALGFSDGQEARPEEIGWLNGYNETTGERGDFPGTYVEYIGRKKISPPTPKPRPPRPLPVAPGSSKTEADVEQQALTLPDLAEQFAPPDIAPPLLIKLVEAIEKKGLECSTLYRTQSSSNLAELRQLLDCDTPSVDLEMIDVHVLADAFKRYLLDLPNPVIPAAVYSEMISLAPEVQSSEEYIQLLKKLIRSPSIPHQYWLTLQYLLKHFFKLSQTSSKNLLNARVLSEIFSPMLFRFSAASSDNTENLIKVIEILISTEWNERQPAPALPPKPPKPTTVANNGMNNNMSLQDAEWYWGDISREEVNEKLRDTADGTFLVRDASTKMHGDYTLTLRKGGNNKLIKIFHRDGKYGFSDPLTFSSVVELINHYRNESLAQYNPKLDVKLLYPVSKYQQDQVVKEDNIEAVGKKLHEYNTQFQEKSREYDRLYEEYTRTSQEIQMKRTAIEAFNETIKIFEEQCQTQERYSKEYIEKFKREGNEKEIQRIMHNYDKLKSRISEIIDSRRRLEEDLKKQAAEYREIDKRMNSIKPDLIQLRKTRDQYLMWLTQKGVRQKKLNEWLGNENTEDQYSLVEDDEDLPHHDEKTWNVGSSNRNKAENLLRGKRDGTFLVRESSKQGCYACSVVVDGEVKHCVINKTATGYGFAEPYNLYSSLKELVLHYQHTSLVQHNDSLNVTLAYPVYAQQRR
Briefly: PI3Kα activity inhibition (Kinase-Glo). Type of assay: biochemical. The conditions noted are these: Table 1, graded; read-out: PI3Kα IC50. As to the method: Detecting the inhibition capability of the compound to PI3Kα and PI3Kδ activities with Kinase-Glo (purchased from Promege Company; Catalog No.: V3771). […] The reaction system also comprises substrates as PIP2 (4, 5-diphosphoinositide, purchased from Life Technologies Company) and ATP (triphosadenine, purchased from Sigma Company). The reaction buffer system comprises 50 mM HEPES (4-hydroxyethylpiperazine ethane sulfonic acid), 3 mM MgCl2, 1 mM EGTA (ethylene glycol bis(2-amino ethylether)quadrol), 100 mM NaCl, 0.03% CHAPS (3-[3-(cholamidopropyl)dimethylamino]-1-propanesulfonic acid), 2 mM DTT (dithiothreitol). The pH value of the reaction buffer is 7.5. […] Mixing the system evenly for incubation under ambient temperature (for 1 h in PI3Kα test and for 2 h in PI3Kδ test). After incubation, adding 10 μL Kinase-Glo which has been preheated to ambient temperature into each reaction well to terminate the reaction; shaking it in dark place for 15 min after it is mixed evenly, then measuring the fluorescence intensity with a microplate reader and analyzing the result data with the software GraphPad Prism.
as §1
Where, Y refers to the inhibition ratio (%) and X refers to the compound concentration.
For orientation: Kinase-Glo measures the ATP left after a reaction by luminescence.

[3] abbreviates: Table 1, graded, read-out: HDAC1 IC50.
The mark [4] stands for this setting: read-out: inhibition value IC50 to the activity of HDAC1.

Read-outs that look alike come from different tables or passages of the source.

T1 sequence (Q13547 whole entry, species assumed): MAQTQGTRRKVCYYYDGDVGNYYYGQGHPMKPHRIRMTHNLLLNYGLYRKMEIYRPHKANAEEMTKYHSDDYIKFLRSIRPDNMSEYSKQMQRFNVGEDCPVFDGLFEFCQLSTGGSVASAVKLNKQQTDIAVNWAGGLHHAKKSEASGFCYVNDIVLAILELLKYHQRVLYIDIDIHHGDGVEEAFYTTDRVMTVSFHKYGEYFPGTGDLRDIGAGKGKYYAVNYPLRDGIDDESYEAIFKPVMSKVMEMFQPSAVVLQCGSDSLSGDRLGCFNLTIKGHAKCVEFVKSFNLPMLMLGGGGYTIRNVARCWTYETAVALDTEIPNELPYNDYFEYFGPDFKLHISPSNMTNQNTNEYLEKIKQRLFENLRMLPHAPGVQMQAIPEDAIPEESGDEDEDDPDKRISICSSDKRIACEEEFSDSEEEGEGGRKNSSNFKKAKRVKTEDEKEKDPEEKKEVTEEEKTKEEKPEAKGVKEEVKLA

For orientation: IC50 means the midpoint of a concentration-inhibition curve. As to “2-(((2-(2-(3-(1-hydroxyethyl)2-phenyl)-9-methyl-6-morpholine-9H-purine-8-yl))methyl(methyl)amino)-N-hydroxyl pyrimidine-5-formamide [CLJ-39]”, the half-maximal inhibitory concentration (IC50) in assay [1] (setting [3]) is less than 100 nM; in assay [2], greater than 10000 nM.

“2-(((2-(4-((2-hydroxycaproyl)sulfydryl)phenyl)-9-methyl-6-morpholine-9H-purine-8-yl))methyl(methyl)amino)-N-hydroxyl pyrimidine-5-formamide [CLJ-42]”: the IC50 in assay [1] (setting [3]) is less than 100 nM; in assay [2], greater than 10000 nM.

As for `CN(Cc1nc2c(N3CCOCC3)nc(-c3ccco3)nc2n1C)c1ncc(C(=O)NO)cn1` [CLJ-26, 2-(((2-(2-furyl)-9-methyl-6-morpholine-9H-purine-8-yl))methyl(methyl)amino)-N-hydroxyl pyrimidine-5-formamide], the 50% inhibitory concentration (IC50) is less than 1 nM in assay [1] (setting [3]), less than 1 nM in assay [1] (setting [4]) and greater than 10000 nM in assay [2].

Take `CN(Cc1nc2c(N3CCOCC3)nc(-c3ccc(O)cc3)nc2n1C)c1ncc(C(=O)NO)cn1` [CLJ-28, 2-(((2-(4-hydroxyphenyl)-9-methyl-6-morpholine-9H-purine-8-yl))methyl(methyl)amino)-N-hydroxyl pyrimidine-5-formamide]: the IC50 in assay [1] (setting [3]) is 100 to 1000 nM; in assay [2], greater than 10000 nM.

As for `CCCCn1c(CN(C)c2ncc(C(=O)NO)cn2)nc2c(N3CCOCC3)nc(-c3ccc(OC)cc3)nc21` [CLJ-33, N-hydroxy-2-(((2-(4-methoxyphenyl)-6-morpholino-9-butyl-9H-purine-8-yl)methyl)(methyl)amino)pyrimidine-5-formamide], the IC50 in assay [1] (setting [3]) is 100 to 1000 nM; in assay [2], greater than 10000 nM.

For the compound `COc1ccc(-c2nc(N3CCOCC3)c3nc(CNc4ncc(C(=O)NO)cn4)n(C)c3n2)cc1` [CLJ-34, N-hydroxy-2-(((2-(4-methoxyphenyl)-9-methyl-6-morpholine-9H-purine-8-yl)methyl)amino)pyrimidine-5-formamide], the IC50 in assay [1] (setting [3]) is less than 100 nM; in assay [2], greater than 10000 nM.

For the compound `CN(Cc1nc2c(N3CCOCC3)nc(-c3ccc4c(c3)OCCO4)nc2n1C)c1ncc(C(=O)NO)cn1` [CLJ-37, 2-(((2-(benzo[d][1.4]dioxyheterocyclic hexylene-6-yl)-9-methyl-6-morpholine-9H-purine-8-yl))methyl(methyl)amino)-N-hydroxyl pyrimidine-5-formamide], the IC50 in assay [1] (setting [3]) is less than 1 nM; in assay [1] (setting [4]), less than 1 nM; in assay [2] it was greater than 10000 nM.

As for `CN(Cc1nc2c(N3CCOCC3)nc(-c3cccc(CO)c3)nc2n1C)c1ncc(C(=O)NO)cn1` [CLJ-40, 2-(((2-(3-(hydroxymethyl)phenyl)-9-methyl-6-morpholine-9H-purine-8-yl))methyl(methyl)amino)-N-hydroxyl pyrimidine-5-formamide], the figures for the IC50 in assay [1] (setting [3]) and in assay [2] were less than 100 nM and greater than 10000 nM, respectively.

With `CN(Cc1nc2c(N3CCOCC3)nc(-c3cccc(OCCO)c3)nc2n1C)c1ncc(C(=O)NO)cn1` [CLJ-41, 2-(((2-(3-(2-hydroxylethyoxyl)phenyl)-9-methyl-6-morpholine-9H-purine-8-yl))methyl(methyl)amino)-N-hydroxyl pyrimidine-5-formamide], the IC50 in assay [1] (setting [3]) and in assay [2] was 100 to 1000 nM throughout.

As to `CC(C)COc1ccc(-c2nc(N3CCOCC3)c3nc(CN(C)c4ncc(C(=O)NO)cn4)n(C)c3n2)cc1` [CLJ-43, 2-(((2-(4-isobutoxyphenyl)-9-methyl-6-morpholine-9H-purine-8-yl))methyl(methyl)amino)-N-hydroxyl pyrimidine-5-formamide], the IC50 is less than 100 nM in assay [1] (setting [3]) and greater than 10000 nM in assay [2].

Take `CCCn1c(CN(C)c2ncc(C(=O)NO)cn2)nc2c(N3CCOCC3)nc(-c3ccc(N)cc3)nc21` [CLJ-45, N-hydroxy-2-(((2-(4-aminophenyl)-6-morpholino-9-propyl-9H-purine-8-yl)methyl)(methyl)amino)pyrimidine-5-formamide]: the 50% inhibitory concentration (IC50) is 1000 to 10000 nM in assay [1] (setting [3]) and greater than 10000 nM in assay [2].

For `CN(C)c1ccc(-c2nc(N3CCOCC3)c3nc(CN(C)c4ncc(C(=O)NO)cn4)n(C)c3n2)cc1` [CLJ-46], the IC50 was less than 1 nM in assay [1] (setting [3]), less than 1 nM in assay [1] (setting [4]) and greater than 10000 nM in assay [2].

With `CCCCN(Cc1nc2c(N3CCOCC3)nc(-c3ccc(NC)cc3)nc2n1C)c1ncc(C(=O)NO)cn1` [CLJ-47, N-hydroxy-2-(((2-(4-methylaminophenyl)-9-methyl-6-morpholine-9H-purine-8-yl)methyl)(butyl)amino)pyrimidine-5-formamide], the concentration for half-maximal inhibition (IC50) was 1000 to 10000 nM in assay [1] (setting [3]) and greater than 10000 nM in assay [2].

With `CN(Cc1nc2c(N3CCOCC3)nc(-c3cccc(NS(=O)(=O)CCCl)c3)nc2n1C)c1ncc(C(=O)NO)cn1` [CLJ-50, 2-(((2-(3-(2-chloroethylsulfonamide)phenyl)-9-methyl-6-morpholine-9H-purine-8-yl))methyl(methyl)amino)-N-hydroxyl pyrimidine-5-formamide], the IC50 was less than 100 nM in assay [1] and greater than 10000 nM in assay [2].

For `CN(Cc1nc2c(N3CCOCC3)nc(-c3ccc(NS(=O)(=O)CCCCl)cc3)nc2n1C)c1ncc(C(=O)NO)cn1` [CLJ-51], the results for the half-inhibitory concentration (IC50) in assay [1] (setting [3]) and in assay [2] were less than 100 nM and greater than 10000 nM, respectively.

For `CN(Cc1nc2c(N3CCOCC3)nc(-c3ccc(NC(=O)OC(C)(C)C)cc3)nc2n1C)c1ncc(C(=O)NO)cn1` [CLJ-52], the IC50 in assay [1] (setting [3]) was less than 100 nM; in assay [2], greater than 10000 nM.

Turning to `CN(Cc1nc2c(N3CCOCC3)nc(-c3ccccc3NS(C)(=O)=O)nc2n1C)c1ncc(C(=O)NO)cn1` [CLJ-53], the concentration for half-maximal inhibition (IC50) is less than 100 nM in assay [1] (setting [3]) and greater than 10000 nM in assay [2].

With `CN(Cc1nc2c(N3CCOCC3)nc(-c3ccc(S(=O)(=O)NCCCCl)cc3)nc2n1C)c1ncc(C(=O)NO)cn1` [CLJ-58, 2-(((2-(4-(N-(3-chloropropyl)sulfonamide)phenyl)-9-methyl-6-morpholine-9H-purine-8-yl))methyl(methyl)amino)-N-hydroxyl pyrimidine-5-formamide], the IC50 was less than 100 nM in assay [1] (setting [3]) and greater than 10000 nM in assay [2].

On to `CN(Cc1nc2c(N3CCOCC3)nc(-c3cccc(S(=O)(=O)NCO)c3)nc2n1C)c1ncc(C(=O)NO)cn1` [CLJ-59, 2-(((2-(3-(N-(hydroxymethyl)sulfonamide)phenyl)-9-methyl-6-morpholine-9H-purine-8-yl))methyl(methyl)amino)-N-hydroxyl pyrimidine-5-formamide], for which the half-inhibitory concentration (IC50) in assay [1] (setting [3]) was less than 100 nM; in assay [2], greater than 10000 nM.

For `CCc1ccc(-c2nc(N3CCOCC3)c3nc(CN(C)c4ncc(C(=O)NO)cn4)n(C)c3n2)cc1` [CLJ-61, 2-(((2-(4-ethylphenyl)-9-methyl-6-morpholine-9H-purine-8-yl))methyl(methyl)amino)-N-hydroxyl pyrimidine-5-formamide], the half-inhibitory concentration (IC50) in assay [1] (setting [3]) is less than 100 nM; in assay [2], greater than 10000 nM.

`CCCc1ccc(-c2nc(N3CCOCC3)c3nc(CN(C)c4ncc(C(=O)NO)cn4)n(C)c3n2)cc1` [CLJ-62, 2-(((2-(4-propylphenyl)-9-methyl-6-morpholine-9H-purine-8-yl))methyl(methyl)amino)-N-hydroxyl pyrimidine-5-formamide]: the concentration for half-maximal inhibition (IC50) in assay [1] (setting [3]) was less than 100 nM; in assay [2], greater than 10000 nM.

`CN(Cc1nc2c(N3CCOCC3)nc(-c3ccc(C(C)(C)C)cc3)nc2n1C)c1ncc(C(=O)NO)cn1` [CLJ-63]: the IC50 was less than 100 nM in assay [1] (setting [3]) and greater than 10000 nM in assay [2].

As for `CN(Cc1nc2c(N3CCOCC3)nc(-c3cccc(C(N)=O)c3)nc2n1C)c1ncc(C(=O)NO)cn1` [CLJ-64, 2-(((2-(3-carbamoylphenyl)-9-methyl-6-morpholine-9H-purine-8-yl))methyl(methyl)amino)-N-hydroxyl pyrimidine-5-formamide], the half-maximal inhibitory concentration (IC50) in assay [1] (setting [3]) was less than 100 nM; in assay [2] it was greater than 10000 nM.

With `CN(Cc1nc2c(N3CCOCC3)nc(-c3cccc(C(=O)NCCO)c3)nc2n1C)c1ncc(C(=O)NO)cn1` [CLJ-65, 2-(((2-(3-(N-(hydroxyethyl)acylamino)phenyl)-9-methyl-6-morpholine-9H-purine-8-yl))methyl(methyl)amino)-N-hydroxyl pyrimidine-5-formamide], the half-inhibitory concentration (IC50) in assay [1] (setting [3]) is less than 100 nM; in assay [2], greater than 10000 nM.
